Source: patent US12383578B2, “Carbazate-activated polyvinyl alcohol (PVAC) as a polymer-based antitumoral agent” (CREMED AB (PUBL), priority 2019, dated 2025)

Assays:
GIST-T1 cells = assay: Cell viability assay (CellTiter-Glo, ATP-based); parameters: species or system human; conditions: biologically relevant concentrations
Protocol: 0.25×10^4-1×10^4 GIST-T1 cells were seeded into each well in a 96-well plate. PVAC, EC, and PVA were added into each well or vehicle (deionized water) with subsequent incubation for 24 or 48 hours. CellTiter-Glo assay (Promega, MI, USA) is an ATP-based luminometric method that was performed according to protocol. In brief, cells were removed from incubator to allow adjust to room temperature after which 100 μL of room temperature CellTiter-Glo was added to each well. The plates were put on a shaker for 5-10 min. Cells rested for 5-10 min before measurement on an EnVision 2103 Multilabel Reader (Perkin Elmer, MA, USA).

MDA-MB-231 tumor cells = conditions: mouse, in vivo
Protocol: Following injection of MDA-MB-231 cells into athymic nude mice the animals were monitored twice weekly recording weight, general health and tumor size. When the average tumor size was approximately 100 μL the animals were stratified into three groups of 12 mice per group based on tumor size. All three groups were subjected to 28 days of twice-weekly intra/peri tumoral injections at a volume of 100 μL per injection. One group served as a control group and received NaCl (vehicle) injections. The remaining two groups received different doses of PVAC, as described above. The animals were euthanized on Day 29 and the tumors were excised, weighed, and divided into two parts handled as described above.

Molecule	Cellular viability (GIST-T1 cells)	Animals euthanized due to infections (MDA-MB-231 tumor cells)
CCOC(=O)NN [EC, ethyl carbazate]	did not reduce cellular viability	–
Poly[1-hydroxyethylene)-ran-(1-hydrazinecarboxylatoethylene)] [PVAC]	–	four
